# Test results taken from patent US8513195B2, “Treatment of mood and anxiety disorders” (priority 2008, dated 2013).
# Assays:
# [1] = system: mice; assay: social defeat stress (SDS) test; assay type: in vivo, mouse; settings: peptide 1 mg/kg; for SDS-induced social avoidance (time spend interacting, TSI): defeated mice, treated 15 or 21 days
# Excerpt: (A) Data represent means+/−SE of time spend interacting (TSI) with the cage, in the absence (non-hatched bars) or presence (hatched bars) of the target. When target is present, control mice engage in active social behaviour, seen as an increase of TSI (panel a), while vehicle-treated defeated mice (panel b; white bars) show lower TSI, indicating social avoidance.
# In the social defeat stress test (SDS), mice were exposed repeatedly (2 week) to aggressive mice; controls were gently handled. Subsequently, the aggressors were removed. Mice were treated with vehicle or TAT-DEF-Elk1 (1 mg/kg) for 15 or 21 days, and then tested for SDS-induced social avoidance. The test box contained a perforated plastic cage that was empty for the first test session and that held a neutral mouse (target) for the second test session.
# [2] = system: mice; assay: mouse forced swimming test (FST); assay type: in vivo; settings: i.p., peptide 90 min, desipramine (20 mg/kg) 30 min prior to test, last 4 min of 6-min test
# Method: (§1) In these tests experimental animals are exposed to inescapable aversive situations (hanging by the tail, being into the water) and in response show alternate periods of agitation and immobility reflecting “attempts to escape” and ‘behavioural resignation” respectively.
# (§2) The details of the experimental protocols used are as follows: mice were injected i.p. with vehicle, different doses of the peptide TAT-DEF-Elk-1, of a scrambled peptide (serving as control), of the MEK inhibitor SL327, or with the reference antidepressants fluoxetine (20 mg/kg) or desipramine (20 mg/kg), at appropriate time points before the test trial.
# (§3) In the TST, each mouse was tested in an individual cubicle while suspended from a tail hanger with adhesive tape wrapped around its tail (1.5-2 cm from tip) 80 cm above the floor. The trial was conducted for 5 min, during which the duration of immobility was measured automatically (BIOSEB, France). For the FST, mice were placed in clear plastic cylinders (diameter 10 cm; height 25 cm) filled with water at 6 cm height (22-25° C.) for 6 min. A blinded observer scored the duration of immobility manually during the last 4 min of the 6-min test.
# [3] = system: mice; assay: mouse tail suspension test (TST); assay type: in vivo; settings: i.p., peptide 90 min, desipramine and fluoxetine (20 mg/kg) 30 min prior to test, 5 min trial
# Method: as §1, §2, §3
# [4] = system: mice; assay: unpredictable chronic mild stress paradigm (UCMS); assay type: in vivo, mouse; settings: for UCMS-induced immobility in the TST / sucrose preference (% of sugar of total consumption): end of 3-week UCMS, peptide 1 mg/kg or fluoxetine 20 mg/kg once daily
# Excerpt: We have also assessed the effects of the TAT-DEF-Elk1 peptide in the unpredictable chronic mild stress paradigm ([…] is used as a pertinent model of depression with aetiological validity. In UCMS protocols animals are subjected for a long period to different non-anticipated stressors. Chronic exposure to stress results to a syndrome in mice that reproduces symptoms of depression, including increased resignation, anxiety-like behavior, decreased consumption of palatable food, and physiological changes. Chronic administration of compounds with antidepressant activity reverses these changes. The protocol that we have used consists of three weeks of UCMS, during which mice were subjected to various stressors according to a 'random' schedule. Body weight and coat state were assessed weekly, as markers of the progression of the UCMS-evoked syndrome. At the end of the 3 week period the emotional state of the mice was tested in behavioral tests of emotionality and of depression-like behaviors (FIG. 3A). Experimental groups of mice were as follows: (i) non-stressed mice: these were group housed and were handled and maintained under standard laboratory conditions (Group 1; FIG. 3B), (ii) stressed mice: these were maintained under standard laboratory conditions but were isolated in small individual cages. During the three week protocol they were exposed to three mild stressors per day. Stressed-mice were treated either with vehicle (Group 2; FIG. 3B), with the peptide (1 mg/kg; once daily), or with the reference antidepressant fluoxetine (20 mg/kg; once daily) (Group 3; FIG. 3B). Treatment with vehicle or compounds started at the beginning of the UCMS and lasted throughout the three week period. At the end of the UCMS paradigm, mice were tested for depressive-like responses, such as passivity and resignation measured as increased immobility in the tail suspension test and anhedonia measured as the preference to sucrose.
# [5] = system: mice; settings: described in the literature; cited from earlier work
# [6] = system: ERK; assay: tail suspension-induced ERK phosphorylation (immunochemistry); assay type: in vivo, mouse; settings: 2 mg/kg, 1 h30 before 10 min TST; perfused 20 min after start
# Method: (§4) In the first experiment, TAT-DEF-Elk-1 peptide (2 mg/kg) or vehicle were administrated 1 h30 before a 10 min tail suspension trial (TST). Mice were perfused 20 min after starting the TST test and phosphorylation of ERK and Elk1 was assessed with immunochemistry.
# [7] = system: plasma corticosterone; assay: plasma corticosterone after 30 min restraint stress (RIA); assay type: in vivo, C57BL/6J mice
# Method: Data represent means+/−SE of plasma corticosterone in banal conditions (non-stressed, light grey bars) and immediately after a 30-min restraint stress (dark grey bars); vehicle or the TAT-DEF-Elk1 peptide were administered […] before the beginning of stress; *p<0.05 as compared to non-stressed; #p<0.05 as compared to vehicle-treated.
# In the second experiment C57BL/6J mice (10 weeks old) were injected with TAT-DEF-Elk1 peptide or vehicle; 1 h30 after the injection the mice were subjected to a 30 min restraint stress i.e. mice were confined individually in a 50 ml Falcon tube in which a hole was made at the top for the mice to breathe. Mice were decapitated directly after restraint, blood was collected in 2 ml eppendorfs containing EDTA at 4° C. Samples were centrifuged for 15 min at 760 g, plasma was collected and corticosterone assessed using the Corticosterone Double Antibody 125-I RIA kit (MP BIOMEDICAL).
# [8] = system: Elk1; assay: tail suspension-induced Elk1 phosphorylation in medial prefrontal cortex (immunochemistry); assay type: in vivo, mouse; settings: 2 mg/kg, 1 h30 before 10 min TST; perfused 20 min after start
# Method: as §4
# [9] = stressed mice, peptide 1 mg/kg once daily for three weeks
compound,measurement,setting,value
"CNCCCN1c2ccccc2CCc2ccccc21 [desipramine, reference compound]","SDS-induced social avoidance (time spend interacting, TSI)",[1],did not have any effect
same,immobility in the FST,[2],antidepressant-like effects similar to the classical antidepressant desipramine
same,immobility in the TST,[3],of similar magnitude of that of fluoxetine and desipramine
"CNCCC(Oc1ccc(C(F)(F)F)cc1)c1ccccc1 (stereo not shown) [fluoxetine, reference compound]",immobility in the TST,[3],of similar magnitude of that of fluoxetine and desipramine
same,UCMS-induced immobility in the TST,[4],similarly to the reference antidepressant fluoxetine
same,sucrose preference (% of sugar of total consumption),[4],similarly to the reference antidepressant fluoxetine
CN(C)CCCN1c2ccccc2CCc2ccccc21 [imipramine],duration of administration after which antidepressant action in the SDS test,[5],39 days
GRKKRRQRRRPPSPAKLSFQFPSSGSAQVHI (selective peptide inhibitor of Elk-1 activation - TAT-DEF-Elk-1) [TAT-DEF-Elk-1 peptide],"SDS-induced social avoidance (time spend interacting, TSI)",[1],fully reverses this behaviour
same,duration of administration after which active in the SDS test,[1],15 days
same,tail suspension-induced ERK phosphorylation,[6],does not inhibit tail suspension-induced ERK phosphorylation
same,immobility in the FST,[2],induced antidepressant-like effects in the FST
same,immobility in the TST,[3],reduced immobility in the TST similar to classical antidepressants
same,stress induced elevation of plasma corticosterone,"[7]; immediately after 30-min restraint stress, injected 1 h30 before",markedly reduces stress induced-elevations in plasma level corticosterone
same,basal plasma level corticosterone,[7]; non-stressed mice,does not affect basal plasma level corticosterone
same,tail suspension-induced Elk1 phosphorylation in mPFCx,[8],reduces selectively tail suspension-induced Elk1 phosphorylation
same,UCMS-induced immobility in the TST,[4],reduced UPMS-induced immobility in the TST
same,sucrose preference (% of sugar of total consumption),[4],fully restored UCMS-blunted sucrose preference
same,UCMS-induced body weight loss,[4]; [9],reversed the progressive weight loss induced by UCMS
same,UCMS-induced degradation of the coat state,[4]; [9],diminished the degradation of the coat state
